Measured values from PMC12027149 (International Journal of Molecular Sciences, 2025).
Where “and” joins values, the source holds several entries; their conditions need not be identical. Equal values may be shown once.

system: not listed separately; assay: MTT cytotoxicity assay on differentiated SH-SY5Y cells; assay type: cell-based, human; details: human, 0.05–5 mM, MTT, read-out: maximum response (cytotoxicity)
Procedure: (§1) The SH–SY5Y cell line (DSMZ code: ACC 209) was supplied by the German Collection of Microorganisms and the Cell Culture GmbH (DSMZ) biobank and was cultured according to the supplier’s information. Cells were grown in DMEM:F12 (Dulbecco’s Modified Eagle’s Medium/F12), supplemented with 10% fetal bovine serum (FBS) and 1% antibiotic–antimycotic in a humidified atmosphere with 5% CO2 at 37 °C. Subculture was performed according to biobank instructions when the cultures reached 80–85% of confluence.
(§2) SH-SY5Y cells were trypsinized (trypsin/EDTA; 0.25%) and the cell suspension was seeded in 96-well plates at a density of 2 × 10^4 cells/well and incubated until reaching 80-85% confluence. Cells were differentiated to obtain a dopaminergic neuronal phenotype according to Ferreira et al. with slight modifications (Figure 10). To ensure reproducibility and optimal neuronal differentiation, cells were used between passages (15–25). Briefly, cells were seeded in complete DMEM:F12 medium containing 10 µM retinoic acid (RA) and 2.5% fetal bovine serum (FBS) and maintained for 4 days, with the medium changed on day 2. After this time, the medium was replaced by DMEM:F12 supplemented with 10 µM RA, 80 nM 12-O-tetradecanoylphorbol-13-acetate (TPA), and 2.5% FBS, and the cells were maintained for an additional 4 days (with the medium changed at day 6). The cytotoxicity assay was performed on day 8.
(§3) The SH-SY5Y cells’ viability was evaluated after exposure for 24 h to […]. The 3-(4,5-dimethylthiazol-2-yl) − 2,5-diphenyltetrazolium bromide (MTT) colorimetric assay was performed following the methodology described by Joana Silva et al.. The experimental dose–response results were fitted to the Hill’s sigmoidal non-linear regression model. For each cathinone, the LC50 values (cathinone concentration showing 50% lethality) and their confidence interval at the 95% confidence level ([CI]) were determined. The Hill slope, also known as the Hill coefficient, which describes the steepness of a dose–response curve, and the minimum observable adverse effect concentration (LOAEL) were also determined for all cathinones.

Row | Structure (SMILES) | Emax at 24 h [%]
1 | CNC(C)C(=O)c1ccc(C)cc1 (stereo not drawn) [Mephedrone (M), Mephedrone, reference compound] | 73

same assay, conditions: human, differentiated SH-SY5Y, 0.05–5 mM, MTT reduction assay, Hill fit, read-out: LC50

Row | Structure (SMILES) | CC50 at 24 h [µM]
2 | CCNC(C)C(=O)c1ccccc1Cl (racemic) [2-CEC (4), (R,S)-1-(2-chlorophenyl)-2-(ethylamino)propan-1-one] | 1600
3 | CCCCNC(C)C(=O)c1cccc(Cl)c1 (racemic) [3-CBC (7), (R,S)-2-(butylamino)-1-(3-chlorophenyl)propan-1-one] | 700
4 | CC(C)NC(C)C(=O)c1ccc(Cl)cc1 (racemic) [4-CIC (18), (R,S)-1-(4-chlorophenyl)-2-(isopropylamino)propan-1-one] | 1400
5 | CC(C(=O)c1cccc(Cl)c1)N1CCCC1 (racemic) [3-Cl-PPP (10), (R,S)-1-(3-chlorophenyl)-2-(pyrrolidine-1-yl)propan-1-one] | 2500
6 | CNC(C)C(=O)c1ccc(Cl)cc1 (racemic) [4-CMC (3), (R,S)-1-(4-chlorophenyl)-2-(methylamino)propan-1-one] | 1300
7 | CCCCNC(C)C(=O)c1ccc(Cl)cc1 (racemic) [4-CBC (8), (R,S)-2-(butylamino)-1-(4-chlorophenyl)propan-1-one] | 600
8 | CC(C(=O)c1ccc(Cl)cc1)N(C)C (racemic) [4-CDC (14), (R,S)-1-(4-chlorophenyl)-2-(dimethylamino)propan-1-one] | 1500
9 | CC(C(=O)c1ccccc1Cl)N1CCCC1 (racemic) [2-Cl-PPP (9), (R,S)-1-(2-chlorophenyl)-2-(pyrrolidine-1-yl)propan-1-one] | 1600
10 | CNC(C)C(=O)c1ccc(C)cc1 (stereo not drawn) [Mephedrone (M), Mephedrone, reference compound] | 2100

system: differentiated SH-SY5Y cells; assay: as above; assay type: cell-based, human; details: lowest observed adverse effect level, differentiated SH-SY5Y, 24 h, MTT
Procedure: as §1, §2, §3

Row | Structure (SMILES) | LOAEL
11 | CCNC(C)C(=O)c1ccccc1Cl (racemic) [2-CEC (4), (R,S)-1-(2-chlorophenyl)-2-(ethylamino)propan-1-one] | 0.5 mM
12 | CCCCNC(C)C(=O)c1cccc(Cl)c1 (racemic) [3-CBC (7), (R,S)-2-(butylamino)-1-(3-chlorophenyl)propan-1-one] | 0.1 mM
13 | CC(C)NC(C)C(=O)c1ccc(Cl)cc1 (racemic) [4-CIC (18), (R,S)-1-(4-chlorophenyl)-2-(isopropylamino)propan-1-one] | 1 mM and 1.0 mM
14 | CC(C(=O)c1cccc(Cl)c1)N1CCCC1 (racemic) [3-Cl-PPP (10), (R,S)-1-(3-chlorophenyl)-2-(pyrrolidine-1-yl)propan-1-one] | 0.1 mM
15 | CNC(C)C(=O)c1ccc(Cl)cc1 (racemic) [4-CMC (3), (R,S)-1-(4-chlorophenyl)-2-(methylamino)propan-1-one] | 0.1 mM
16 | CCCCNC(C)C(=O)c1ccc(Cl)cc1 (racemic) [4-CBC (8), (R,S)-2-(butylamino)-1-(4-chlorophenyl)propan-1-one] | 0.5 mM
17 | CC(C(=O)c1ccc(Cl)cc1)N(C)C (racemic) [4-CDC (14), (R,S)-1-(4-chlorophenyl)-2-(dimethylamino)propan-1-one] | 1 mM and 1.0 mM
18 | CC(C(=O)c1ccccc1Cl)N1CCCC1 (racemic) [2-Cl-PPP (9), (R,S)-1-(2-chlorophenyl)-2-(pyrrolidine-1-yl)propan-1-one] | 0.5 mM
19 | CNC(C)C(=O)c1ccc(C)cc1 (stereo not drawn) [Mephedrone (M), Mephedrone, reference compound] | 0.5 mM

system: SH-SY5Y cells; assay: Mitochondrial membrane potential (JC-1 probe); assay type: cell-based, human; details: 6 h treatment at LC50, JC-1
Procedure: Mitochondrial membrane potential (MMP) was estimated by using the JC-1 fluorescent probe (Molecular Probes, Eugene, OR, USA) as described in Silva et al., 2022 [65]. The formation of JC-1 aggregates (excitation λ: 490 nm; emission λ: 590 nm) and monomers (excitation λ: 490 nm; emission λ: 530 nm) was measured for 30 min using a plate reader (Bio-Tek Synergy plate reader, Bedfordshire, UK). Changes in MMP were calculated as the ratio between JC-1 monomers and aggregates and expressed as a percentage of the control. An FCCP (2.5 µM) and oligomycin A (1 mg/mL) conjugate solution was used as the positive control. All data were obtained from at least three independent experiments (n = 3) and were presented as mean ± standard error of the mean (SEM).

Row | Structure (SMILES) | MMP depolarization
20 | CCCCNC(C)C(=O)c1cccc(Cl)c1 (racemic) [3-CBC (7), (R,S)-2-(butylamino)-1-(3-chlorophenyl)propan-1-one] | more pronounced MMP depolarization than the other cathinones
21 | CCCCNC(C)C(=O)c1ccc(Cl)cc1 (racemic) [4-CBC (8), (R,S)-2-(butylamino)-1-(4-chlorophenyl)propan-1-one] | more pronounced MMP depolarization than the other cathinones

target: T1, Acetylcholinesterase (AChE, EC 3.1.1.7) (Electrophorus electricus, UniProt O42275); assay: Acetylcholinesterase inhibition, modified Ellman colorimetric method; assay type: biochemical; details: 0.03 to 2 mM
T1 construct: purchased Sigma-Aldrich
Procedure: Acetylcholinesterase (AChE, EC 3.1.1.7) enzymatic activity was assessed using a modified version of Ellman’s colorimetric method, as described by Falé et al.. In this assay, a mixture of 325 μL of 50 mM Tris-HCl buffer (pH 8), 100 μL of a cathinone solution, and 25 μL of AChE (0.1 U/mL in 50 mM Tris–HCl buffer pH 8) were incubated. After a 15 min incubation period, 75 μL of AChI (0.33 mg/mL) was added to 475 μL of DTNB (dithiobis (2-nitrobenzoic acid)) (1.2 mg/mL in Tris–HCl buffer (pH 8) containing 0.1 M NaCl and 0.02 M MgCl2). A control reaction, representing 100% activity, was performed using the same volume of water instead of the cathinone solution. The initial velocity of the enzymatic reaction was measured at 405 nm for 5 min, with all assays carried out in duplicate. The percentage of AChE activity inhibition for different concentrations of cathinones [0.03–2 mM] was determined as the ratio of the initial velocity in the cathinone presence to the initial velocity of the control reaction. Experimental results were fitted to Hill’s sigmoidal dose–response non-linear regression model to determine IC50 values (cathinone concentration showing 50% inhibition), along with their confidence interval at the 95% confidence level ([CI]). The Hill slope coefficients that provide the steepest value of the slope of the dose–response curve and the minimum observable adverse effect concentration (LOAEL) for all cathinones were also determined.

T1 sequence (O42275 24-633): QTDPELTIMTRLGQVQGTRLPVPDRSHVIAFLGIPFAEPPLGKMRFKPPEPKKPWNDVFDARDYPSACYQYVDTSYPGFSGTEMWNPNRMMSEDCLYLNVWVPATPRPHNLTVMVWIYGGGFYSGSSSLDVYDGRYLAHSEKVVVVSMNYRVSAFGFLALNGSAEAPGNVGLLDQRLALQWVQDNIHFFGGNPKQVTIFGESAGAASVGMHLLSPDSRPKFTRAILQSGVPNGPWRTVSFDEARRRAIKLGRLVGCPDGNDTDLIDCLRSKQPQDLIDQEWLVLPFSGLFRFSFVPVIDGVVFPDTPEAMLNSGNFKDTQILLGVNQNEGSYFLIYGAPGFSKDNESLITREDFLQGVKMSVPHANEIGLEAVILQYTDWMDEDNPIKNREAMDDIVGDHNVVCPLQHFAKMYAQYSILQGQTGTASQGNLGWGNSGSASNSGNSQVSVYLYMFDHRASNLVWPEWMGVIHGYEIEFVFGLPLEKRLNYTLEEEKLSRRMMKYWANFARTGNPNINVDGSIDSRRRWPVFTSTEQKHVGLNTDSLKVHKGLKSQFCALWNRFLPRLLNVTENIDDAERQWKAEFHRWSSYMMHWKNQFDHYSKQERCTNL

Row | Structure (SMILES) | maximum inhibition of AChE among the tested concentrations [%]
22 | CCNC(C)C(=O)c1ccccc1Cl (racemic) [2-CEC (4), (R,S)-1-(2-chlorophenyl)-2-(ethylamino)propan-1-one] | 85
23 | CC(C(=O)c1ccccc1Cl)N1CCCC1 (racemic) [2-Cl-PPP (9), (R,S)-1-(2-chlorophenyl)-2-(pyrrolidine-1-yl)propan-1-one] | 81

same assay, conditions: AChE inhibition dose–response curve

Row | Structure (SMILES) | Hillslope
24 | CCNC(C)C(=O)c1ccccc1Cl (racemic) [2-CEC (4), (R,S)-1-(2-chlorophenyl)-2-(ethylamino)propan-1-one] | 4.3
25 | CCCCNC(C)C(=O)c1cccc(Cl)c1 (racemic) [3-CBC (7), (R,S)-2-(butylamino)-1-(3-chlorophenyl)propan-1-one] | 1.4
26 | CC(C)NC(C)C(=O)c1ccc(Cl)cc1 (racemic) [4-CIC (18), (R,S)-1-(4-chlorophenyl)-2-(isopropylamino)propan-1-one] | 2.0
27 | CC(C(=O)c1cccc(Cl)c1)N1CCCC1 (racemic) [3-Cl-PPP (10), (R,S)-1-(3-chlorophenyl)-2-(pyrrolidine-1-yl)propan-1-one] | 1.8
28 | CNC(C)C(=O)c1ccc(Cl)cc1 (racemic) [4-CMC (3), (R,S)-1-(4-chlorophenyl)-2-(methylamino)propan-1-one] | 1.5
29 | CCCCNC(C)C(=O)c1ccc(Cl)cc1 (racemic) [4-CBC (8), (R,S)-2-(butylamino)-1-(4-chlorophenyl)propan-1-one] | 5.1
30 | CC(C(=O)c1ccc(Cl)cc1)N(C)C (racemic) [4-CDC (14), (R,S)-1-(4-chlorophenyl)-2-(dimethylamino)propan-1-one] | 2.9
31 | CC(C(=O)c1ccccc1Cl)N1CCCC1 (racemic) [2-Cl-PPP (9), (R,S)-1-(2-chlorophenyl)-2-(pyrrolidine-1-yl)propan-1-one] | 1.5
32 | CNC(C)C(=O)c1ccc(C)cc1 (stereo not drawn) [Mephedrone (M), Mephedrone, reference compound] | 8.6

same assay, conditions: AChE inhibition, Ellman assay

Row | Structure (SMILES) | LOAEL
33 | CCNC(C)C(=O)c1ccccc1Cl (racemic) [2-CEC (4), (R,S)-1-(2-chlorophenyl)-2-(ethylamino)propan-1-one] | 0.500 mM
34 | CCCCNC(C)C(=O)c1cccc(Cl)c1 (racemic) [3-CBC (7), (R,S)-2-(butylamino)-1-(3-chlorophenyl)propan-1-one] | 0.125 mM
35 | CC(C)NC(C)C(=O)c1ccc(Cl)cc1 (racemic) [4-CIC (18), (R,S)-1-(4-chlorophenyl)-2-(isopropylamino)propan-1-one] | 0.375 mM
36 | CC(C(=O)c1cccc(Cl)c1)N1CCCC1 (racemic) [3-Cl-PPP (10), (R,S)-1-(3-chlorophenyl)-2-(pyrrolidine-1-yl)propan-1-one] | 0.125 mM
37 | CNC(C)C(=O)c1ccc(Cl)cc1 (racemic) [4-CMC (3), (R,S)-1-(4-chlorophenyl)-2-(methylamino)propan-1-one] | 0.250 mM
38 | CCCCNC(C)C(=O)c1ccc(Cl)cc1 (racemic) [4-CBC (8), (R,S)-2-(butylamino)-1-(4-chlorophenyl)propan-1-one] | 0.100 mM
39 | CC(C(=O)c1ccc(Cl)cc1)N(C)C (racemic) [4-CDC (14), (R,S)-1-(4-chlorophenyl)-2-(dimethylamino)propan-1-one] | 0.500 mM and 0.50 mM
40 | CC(C(=O)c1ccccc1Cl)N1CCCC1 (racemic) [2-Cl-PPP (9), (R,S)-1-(2-chlorophenyl)-2-(pyrrolidine-1-yl)propan-1-one] | 0.125 mM
41 | CNC(C)C(=O)c1ccc(C)cc1 (stereo not drawn) [Mephedrone (M), Mephedrone, reference compound] | 0.750 mM

same assay, conditions: IC50, AChE inhibition, 0.03–2 mM, Ellman assay, Hill fit

Row | Structure (SMILES) | IC50 [µM]
42 | CCNC(C)C(=O)c1ccccc1Cl (racemic) [2-CEC (4), (R,S)-1-(2-chlorophenyl)-2-(ethylamino)propan-1-one] | 600
43 | CCCCNC(C)C(=O)c1cccc(Cl)c1 (racemic) [3-CBC (7), (R,S)-2-(butylamino)-1-(3-chlorophenyl)propan-1-one] | 400
44 | CC(C)NC(C)C(=O)c1ccc(Cl)cc1 (racemic) [4-CIC (18), (R,S)-1-(4-chlorophenyl)-2-(isopropylamino)propan-1-one] | 1100
45 | CC(C(=O)c1cccc(Cl)c1)N1CCCC1 (racemic) [3-Cl-PPP (10), (R,S)-1-(3-chlorophenyl)-2-(pyrrolidine-1-yl)propan-1-one] | 400
46 | CNC(C)C(=O)c1ccc(Cl)cc1 (racemic) [4-CMC (3), (R,S)-1-(4-chlorophenyl)-2-(methylamino)propan-1-one] | ~2000
47 | CCCCNC(C)C(=O)c1ccc(Cl)cc1 (racemic) [4-CBC (8), (R,S)-2-(butylamino)-1-(4-chlorophenyl)propan-1-one] | 1300
48 | CC(C(=O)c1ccc(Cl)cc1)N(C)C (racemic) [4-CDC (14), (R,S)-1-(4-chlorophenyl)-2-(dimethylamino)propan-1-one] | 700
49 | CC(C(=O)c1ccccc1Cl)N1CCCC1 (racemic) [2-Cl-PPP (9), (R,S)-1-(2-chlorophenyl)-2-(pyrrolidine-1-yl)propan-1-one] | 300
50 | CNC(C)C(=O)c1ccc(C)cc1 (stereo not drawn) [Mephedrone (M), Mephedrone, reference compound] | 800

same assay, conditions: highest tested concentration of 2 mM

Row | Structure (SMILES) | inhibition at 2000 µM [%]
51 | CNC(C)C(=O)c1ccc(Cl)cc1 (racemic) [4-CMC (3), (R,S)-1-(4-chlorophenyl)-2-(methylamino)propan-1-one] | 47
